system: Phytophthora infestans—PHYTIN; test: whole plant or invertebrate; format: in vivo; conditions: Phytophthora, in Solanum lycopersicum, 24 h, read-out: PHYTIN in vivo 1 Day Protectant

Q: For `COc1ccnc(C(=O)Nc2ccc(Sc3ccc(C(F)(F)F)cc3)cc2)c1O` [Compound 446], which pest or weed control at 100 ppm is on record?
A: Its pest or weed control at 100 ppm is 25 to 74%.

Q: For `COc1ccnc(C(=O)Nc2ccc(Oc3cccc(C#N)c3)cc2)c1O` [Compound 421], which pest or weed control at 100 ppm is on record?
A: The pest or weed control at 100 ppm was less than 25%.

Q: For `COc1ccnc(C(=O)NCC#CCCl)c1O` [Compound 239], which pest or weed control at 100 ppm is on record?
A: The pest or weed control at 100 ppm was less than 25%.

Q: How did the pest or weed control at 100 ppm turn out when `COc1ccnc(C(=O)NC(COC(=O)C(C)Cc2ccccc2)C(=O)OC(C)C)c1O` (centres unmarked) [Compound 351] was run?
A: Its pest or weed control at 100 ppm is less than 25%.

system: Stagonospora nodorum (Leptosphaeria nodorum—LEPTNO); test: In vitro fungal growth inhibition, Stagonospora nodorum (LEPTNO); format: cell-based; conditions: Leptosphaeria; 25 ppm in growth medium; read-out: LEPTNO in vitro Growth Inhibition

Q: How did the inhibition at 25 ppm turn out when `COc1ccnc(C(=O)Nc2ccc(Sc3ccc(C(F)(F)F)cc3)cc2)c1O` [Compound 446] was run?
A: Its inhibition at 25 ppm is less than 80%.

Q: How did the inhibition at 25 ppm turn out when `COc1ccnc(C(=O)Nc2ccc(Oc3cccc(C#N)c3)cc2)c1O` [Compound 421] was run?
A: Its inhibition at 25 ppm is less than 80%.

Q: With `COc1ccnc(C(=O)NCC#CCCl)c1O` [Compound 239] as the compound, how does the inhibition at 25 ppm read?
A: Its inhibition at 25 ppm is less than 80%.

Q: With `COc1ccnc(C(=O)NC(COC(=O)C(C)Cc2ccccc2)C(=O)OC(C)C)c1O` (centres unmarked) [Compound 351] as the compound, how does the inhibition at 25 ppm read?
A: Its inhibition at 25 ppm is less than 80%.

system: Mycosphaerella graminicola (Septoria tritici—SEPTTR); test: In vitro fungal growth inhibition, Mycosphaerella graminicola (SEPTTR); format: cell-based; conditions: Zymoseptoria tritici; 25 ppm in growth medium; read-out: SEPTTR in vitro Growth Inhibition

Q: Which inhibition at 25 ppm does the source give for `COc1ccnc(C(=O)Nc2ccc(Sc3ccc(C(F)(F)F)cc3)cc2)c1O` [Compound 446] here?
A: Its inhibition at 25 ppm is less than 80%.

Q: With `COc1ccnc(C(=O)Nc2ccc(Oc3cccc(C#N)c3)cc2)c1O` [Compound 421] as the compound, how does the inhibition at 25 ppm read?
A: Its inhibition at 25 ppm is less than 80%.

Q: For `COc1ccnc(C(=O)NCC#CCCl)c1O` [Compound 239], which inhibition at 25 ppm is on record?
A: The inhibition at 25 ppm was less than 80%.

Q: `COc1ccnc(C(=O)NC(COC(=O)C(C)Cc2ccccc2)C(=O)OC(C)C)c1O` (centres unmarked) [Compound 351] was tested. Which inhibition at 25 ppm did it give?
A: The inhibition at 25 ppm was less than 80%.

system: Phytophthora infestans (PHYTIN); test: microbe, parasite or virus in culture; format: cell-based; conditions: Phytophthora infestans, read-out: PHYTIN in vitro Growth Inhibition

Q: Which inhibition at 25 ppm does the source give for `COc1ccnc(C(=O)Nc2ccc(Sc3ccc(C(F)(F)F)cc3)cc2)c1O` [Compound 446] here?
A: Its inhibition at 25 ppm is less than 80%.

Q: With `COc1ccnc(C(=O)Nc2ccc(Oc3cccc(C#N)c3)cc2)c1O` [Compound 421] as the compound, how does the inhibition at 25 ppm read?
A: Its inhibition at 25 ppm is less than 80%.

Q: Which inhibition at 25 ppm does the source give for `COc1ccnc(C(=O)NCC#CCCl)c1O` [Compound 239] here?
A: Its inhibition at 25 ppm is less than 80%.

Q: For `COc1ccnc(C(=O)NC(COC(=O)C(C)Cc2ccccc2)C(=O)OC(C)C)c1O` (centres unmarked) [Compound 351], which inhibition at 25 ppm is on record?
A: Its inhibition at 25 ppm is less than 80%.

system: Septoria tritici—SEPTTR; test: Leaf Blotch of Wheat, in vivo whole plant, 24 Hour Protectant; conditions: Zymoseptoria tritici, 24 h, 100 ppm spray, 24 hour protectant, wheat; control of fungal infection vs untreated plants; read-out: SEPTTR in vivo 1 Day Protectant

Q: `COc1ccnc(C(=O)NCC#CCCl)c1O` [Compound 239] was tested. Which pest or weed control at 100 ppm did it give?
A: The pest or weed control at 100 ppm was 25 to 74%.

same assay, conditions: Zymoseptoria tritici, 24 h, 100 ppm spray, wheat, 24 hour protectant; control of fungal infection vs untreated plants; read-out: SEPTTR in vivo 1 Day Protectant

Q: Which pest or weed control at 100 ppm does the source give for `COc1ccnc(C(=O)Nc2ccc(Sc3ccc(C(F)(F)F)cc3)cc2)c1O` [Compound 446] here?
A: The pest or weed control at 100 ppm was less than 25%.

Q: `COc1ccnc(C(=O)Nc2ccc(Oc3cccc(C#N)c3)cc2)c1O` [Compound 421] was tested. Which pest or weed control at 100 ppm did it give?
A: The pest or weed control at 100 ppm was less than 25%.

Q: For `COc1ccnc(C(=O)NC(COC(=O)C(C)Cc2ccccc2)C(=O)OC(C)C)c1O` (centres unmarked) [Compound 351], which pest or weed control at 100 ppm is on record?
A: The pest or weed control at 100 ppm was less than 25%.

system: Ustilago maydis (USTIMA); test: microbe, parasite or virus in culture; format: cell-based; conditions: Mycosarcoma maydis, read-out: USTIMA in vitro Growth Inhibition

Q: Which inhibition at 25 ppm does the source give for `COc1ccnc(C(=O)Nc2ccc(Sc3ccc(C(F)(F)F)cc3)cc2)c1O` [Compound 446] here?
A: The inhibition at 25 ppm was less than 80%.

Q: With `COc1ccnc(C(=O)Nc2ccc(Oc3cccc(C#N)c3)cc2)c1O` [Compound 421] as the compound, how does the inhibition at 25 ppm read?
A: Its inhibition at 25 ppm is less than 80%.

Q: How did the inhibition at 25 ppm turn out when `COc1ccnc(C(=O)NCC#CCCl)c1O` [Compound 239] was run?
A: Its inhibition at 25 ppm is less than 80%.

Q: Which inhibition at 25 ppm does the source give for `COc1ccnc(C(=O)NC(COC(=O)C(C)Cc2ccccc2)C(=O)OC(C)C)c1O` (centres unmarked) [Compound 351] here?
A: The inhibition at 25 ppm was greater than 80%.

system: Puccinia recondita—PUCCRT; test: Brown Rust of Wheat, in vivo whole plant, 24 Hour Protectant; conditions: 100 ppm spray, wheat, 24 hour protectant; control of fungal infection vs untreated plants

Q: `COc1ccnc(C(=O)NC(COC(=O)C(C)Cc2ccccc2)C(=O)OC(C)C)c1O` (centres unmarked) [Compound 351] was tested. Which “PUCCRT in vivo 1 Day Protectant” value did it give?
A: Its value is “+ +”.

same assay, conditions: Puccinia; 100 ppm spray, 24 hour protectant, wheat; control of fungal infection vs untreated plants; read-out: PUCCRT in vivo 1 Day Protectant

Q: With `COc1ccnc(C(=O)NCC#CCCl)c1O` [Compound 239] as the compound, how does the pest or weed control at 100 ppm read?
A: Its pest or weed control at 100 ppm is 25 to 74%.

same assay, conditions: Puccinia; 100 ppm spray, wheat, 24 hour protectant; control of fungal infection vs untreated plants; read-out: PUCCRT in vivo 1 Day Protectant

Q: Which pest or weed control at 100 ppm does the source give for `COc1ccnc(C(=O)Nc2ccc(Sc3ccc(C(F)(F)F)cc3)cc2)c1O` [Compound 446] here?
A: The pest or weed control at 100 ppm was less than 25%.

Q: Which pest or weed control at 100 ppm does the source give for `COc1ccnc(C(=O)Nc2ccc(Oc3cccc(C#N)c3)cc2)c1O` [Compound 421] here?
A: The pest or weed control at 100 ppm was less than 25%.

system: Magnaporthe grisea (Pyricularia oryzae—PYRIOR); test: microbe, parasite or virus in culture; format: cell-based; conditions: Pyricularia oryzae, read-out: PYRIOR in vitro Growth Inhibition

Q: `COc1ccnc(C(=O)Nc2ccc(Sc3ccc(C(F)(F)F)cc3)cc2)c1O` [Compound 446] was tested. Which inhibition at 25 ppm did it give?
A: The inhibition at 25 ppm was less than 80%.

Q: `COc1ccnc(C(=O)Nc2ccc(Oc3cccc(C#N)c3)cc2)c1O` [Compound 421] was tested. Which inhibition at 25 ppm did it give?
A: The inhibition at 25 ppm was less than 80%.

Q: `COc1ccnc(C(=O)NCC#CCCl)c1O` [Compound 239] was tested. Which inhibition at 25 ppm did it give?
A: The inhibition at 25 ppm was less than 80%.

Q: With `COc1ccnc(C(=O)NC(COC(=O)C(C)Cc2ccccc2)C(=O)OC(C)C)c1O` (centres unmarked) [Compound 351] as the compound, how does the inhibition at 25 ppm read?
A: The inhibition at 25 ppm was less than 80%.

system: Erysiphe graminis—ERYSGT; test: Powdery Mildew of Wheat, in vivo whole plant, 24 Hour Protectant; conditions: Erysiphe; 100 ppm spray, 24 hour protectant, wheat; control of fungal infection vs untreated plants; read-out: ERYSGT in vivo 1 Day Protectant

Q: How did the pest or weed control at 100 ppm turn out when `COc1ccnc(C(=O)NCC#CCCl)c1O` [Compound 239] was run?
A: Its pest or weed control at 100 ppm is less than 25%.

same assay, conditions: Erysiphe; 100 ppm spray, wheat, 24 hour protectant; control of fungal infection vs untreated plants; read-out: ERYSGT in vivo 1 Day Protectant

Q: For `COc1ccnc(C(=O)Nc2ccc(Sc3ccc(C(F)(F)F)cc3)cc2)c1O` [Compound 446], which pest or weed control at 100 ppm is on record?
A: Its pest or weed control at 100 ppm is less than 25%.

Q: How did the pest or weed control at 100 ppm turn out when `COc1ccnc(C(=O)Nc2ccc(Oc3cccc(C#N)c3)cc2)c1O` [Compound 421] was run?
A: Its pest or weed control at 100 ppm is less than 25%.

Q: `COc1ccnc(C(=O)NC(COC(=O)C(C)Cc2ccccc2)C(=O)OC(C)C)c1O` (centres unmarked) [Compound 351] was tested. Which pest or weed control at 100 ppm did it give?
A: The pest or weed control at 100 ppm was less than 25%.

system: Rhizoctonia solani (RHIZSO); test: microbe, parasite or virus in culture; format: cell-based; conditions: Rhizoctonia solani, read-out: RHIZSO in vitro Growth Inhibition

Q: For `COc1ccnc(C(=O)Nc2ccc(Sc3ccc(C(F)(F)F)cc3)cc2)c1O` [Compound 446], which inhibition at 25 ppm is on record?
A: The inhibition at 25 ppm was less than 80%.

Q: For `COc1ccnc(C(=O)Nc2ccc(Oc3cccc(C#N)c3)cc2)c1O` [Compound 421], which inhibition at 25 ppm is on record?
A: The inhibition at 25 ppm was less than 80%.

Q: With `COc1ccnc(C(=O)NCC#CCCl)c1O` [Compound 239] as the compound, how does the inhibition at 25 ppm read?
A: Its inhibition at 25 ppm is less than 80%.

Q: With `COc1ccnc(C(=O)NC(COC(=O)C(C)Cc2ccccc2)C(=O)OC(C)C)c1O` (centres unmarked) [Compound 351] as the compound, how does the inhibition at 25 ppm read?
A: The inhibition at 25 ppm was less than 80%.

system: Leptosphaeria nodorum—LEPTNO; test: Glume Blotch of Wheat, in vivo whole plant, 24 Hour Protectant; conditions: Leptosphaeria; 100 ppm spray, 24 hour protectant, wheat; control of fungal infection vs untreated plants; read-out: LEPTNO in vivo 1 Day Protectant

Q: For `COc1ccnc(C(=O)NCC#CCCl)c1O` [Compound 239], which pest or weed control at 100 ppm is on record?
A: The pest or weed control at 100 ppm was 25 to 74%.

same assay, conditions: Leptosphaeria; 100 ppm spray, wheat, 24 hour protectant; control of fungal infection vs untreated plants; read-out: LEPTNO in vivo 1 Day Protectant

Q: With `COc1ccnc(C(=O)Nc2ccc(Sc3ccc(C(F)(F)F)cc3)cc2)c1O` [Compound 446] as the compound, how does the pest or weed control at 100 ppm read?
A: Its pest or weed control at 100 ppm is less than 25%.

Q: With `COc1ccnc(C(=O)Nc2ccc(Oc3cccc(C#N)c3)cc2)c1O` [Compound 421] as the compound, how does the pest or weed control at 100 ppm read?
A: The pest or weed control at 100 ppm was 25 to 74%.

Q: Which pest or weed control at 100 ppm does the source give for `COc1ccnc(C(=O)NC(COC(=O)C(C)Cc2ccccc2)C(=O)OC(C)C)c1O` (centres unmarked) [Compound 351] here?
A: The pest or weed control at 100 ppm was 25 to 74%.
